Columns and labels:
[1] = molecular target: Human immunodeficiency virus type 1 protease (Human immunodeficiency virus 1, UniProt Q72874); test: Ability to inhibit purified recombinant HIV-1 protease.
[2] = In vitro toxic concentration against HIV-1 IIIb H9-infected cells; assay type: cell-based; settings: human, HIV-1 IIIb-infected H9 cells; read-out: TC50 (the source's name)
Renin = molecular target: T1, Renin (Homo sapiens, UniProt P00797); test: Ability to inhibit the human recombinant renin aspartic protease enzyme
T1 sequence (P00797 whole entry): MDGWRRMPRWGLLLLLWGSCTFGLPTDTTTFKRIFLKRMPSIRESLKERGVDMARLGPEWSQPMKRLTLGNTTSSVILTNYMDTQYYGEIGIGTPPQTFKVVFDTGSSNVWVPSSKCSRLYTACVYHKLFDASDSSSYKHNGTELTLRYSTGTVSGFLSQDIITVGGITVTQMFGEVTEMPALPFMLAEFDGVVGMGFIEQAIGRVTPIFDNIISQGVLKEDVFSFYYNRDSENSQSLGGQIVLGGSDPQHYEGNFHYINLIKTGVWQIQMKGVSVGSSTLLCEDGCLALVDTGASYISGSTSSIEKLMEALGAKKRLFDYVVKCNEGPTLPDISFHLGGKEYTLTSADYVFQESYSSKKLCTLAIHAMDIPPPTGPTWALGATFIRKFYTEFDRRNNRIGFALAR

Cathepsin E = molecular target: T2, Cathepsin E (Homo sapiens, UniProt P14091); test: Ability to inhibit the human Native cathepsin E aspartic protease enzyme
T2 sequence (P14091 whole entry): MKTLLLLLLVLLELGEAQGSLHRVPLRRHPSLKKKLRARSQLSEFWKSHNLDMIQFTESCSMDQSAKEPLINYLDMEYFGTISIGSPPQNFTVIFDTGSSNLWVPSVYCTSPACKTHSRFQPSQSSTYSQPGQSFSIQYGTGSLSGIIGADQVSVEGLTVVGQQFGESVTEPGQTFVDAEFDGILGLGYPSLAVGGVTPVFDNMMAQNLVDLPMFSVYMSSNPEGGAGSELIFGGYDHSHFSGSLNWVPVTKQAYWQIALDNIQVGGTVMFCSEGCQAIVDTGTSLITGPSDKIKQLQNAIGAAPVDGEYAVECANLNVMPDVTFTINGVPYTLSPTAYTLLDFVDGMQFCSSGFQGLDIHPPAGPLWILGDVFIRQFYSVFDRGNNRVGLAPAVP

Cathepsin D = Cathepsin D (Homo sapiens, UniProt P07339); test: Ability to inhibit the human Native cathepsin D aspartic protease enzyme
Chain of Cathepsin D (P07339 65-162 limits assumed): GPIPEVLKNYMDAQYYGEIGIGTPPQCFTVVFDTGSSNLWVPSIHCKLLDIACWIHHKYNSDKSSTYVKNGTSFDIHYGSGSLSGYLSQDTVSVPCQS
Chain of Cathepsin D (P07339 169-412 limits assumed): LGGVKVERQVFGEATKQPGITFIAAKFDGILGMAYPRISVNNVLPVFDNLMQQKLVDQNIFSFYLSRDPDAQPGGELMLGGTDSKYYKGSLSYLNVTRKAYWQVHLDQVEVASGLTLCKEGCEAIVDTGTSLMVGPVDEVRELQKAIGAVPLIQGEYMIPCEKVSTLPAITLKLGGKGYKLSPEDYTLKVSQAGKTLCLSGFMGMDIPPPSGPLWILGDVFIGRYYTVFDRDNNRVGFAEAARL

Row | SMILES | IC50 [1] | CC50 [2] | also measured
1 | O=c1cc(-c2ccccc2)oc(O)c1C(CC1CCCC1)SC1CCCCC1 (stereo unspecified) | 541 nM |  | 
2 | O=c1cc(-c2ccccc2)oc(O)c1C(CC1CC1)SC1CCCC1 (stereo unspecified) |  |  | Ki [1]: 0.069 nM
3 | CC(C)CC(SC1CCCC1)c1c(O)cc(-c2ccccc2)oc1=O (stereo unspecified) | 58 nM | 28000 nM | IC50 (Renin): > 10000 nM; IC50 (Cathepsin E): > 40000 nM; IC50 (Cathepsin D): > 40000 nM
4 | CC(C)CC(Sc1ccccc1)c1c(O)cc(-c2ccccc2)oc1=O (stereo unspecified) | 410 nM |  | 
5 | CC(C)(C)CC(SC1CCCCC1)c1c(O)cc(-c2ccccc2)oc1=O (stereo unspecified) | 300 nM |  | 
6 | CC(C)CCC(Sc1ccccc1)c1c(O)cc(-c2ccccc2)oc1=O (stereo unspecified) | 390 nM |  | 
7 | CC(C)CC(SCc1ccccc1)c1c(O)cc(-c2ccccc2)oc1=O (stereo unspecified) | 260 nM | 67000 nM | 
8 | O=c1cc(-c2ccccc2)oc(O)c1C(SCc1ccccc1)c1ccccc1 (stereo unspecified) | 480 nM | 61000 nM | 
9 | CC(C)CC(SCC1CCCCC1)c1c(O)cc(-c2ccccc2)oc1=O (stereo unspecified) | 848 nM |  | 
10 | O=c1cc(-c2ccccc2)oc(O)c1C(CC1CC1)SC1CCCCC1 (stereo unspecified) | 147 nM | 67000 nM | 
11 | O=c1cc(-c2ccccc2)oc(O)c1C(SC1CCCC1)C1CCCC1 (stereo unspecified) | 225 nM | 70000 nM | 
12 | CC(C)CC(SC1CCCCC1)c1c(O)cc(-c2ccccc2)oc1=O (stereo unspecified) | 320 nM |  | 

The next lines start with results.

Row | IC50 [1] | SMILES | CC50 [2] | also measured
13 | 84 nM | O=c1cc(-c2ccccc2)oc(O)c1C(CC1CC1)SCc1ccccc1 (stereo unspecified) | 68000 nM | IC50 (Renin): > 10000 nM; IC50 (Cathepsin E): > 40000 nM; IC50 (Cathepsin D): > 40000 nM
14 | 2450 nM | O=c1cc(-c2ccccc2)oc(O)c1C(Sc1ccc2ccccc2c1)c1ccccc1 (stereo unspecified) |  | 
15 | 780 nM | O=c1cc(-c2ccccc2)oc(O)c1C(Sc1ccccc1)c1ccccc1 (stereo unspecified) |  | 
16 | 2440 nM | O=c1cc(-c2ccccc2)oc(O)c1C(Sc1ccccc1)C1CCCCC1 (stereo unspecified) |  | 
17 | 7820 nM | O=c1cc(-c2ccccc2)oc(O)c1C(Sc1ccccc1)c1ccc2ccccc2c1 (stereo unspecified) |  | 
18 | 480 nM | O=c1cc(-c2ccccc2)oc(O)c1C(SC1CCCCC1)c1ccccc1 (stereo unspecified) |  | 
19 | 84300 nM | O=c1cc(-c2ccccc2)oc(O)c1CSc1ccccc1 |  | 
